Calls of active or inactive are those of the source. How the calls were made is not given here.
Target: Gag-Pol polyprotein (Human immunodeficiency virus type 1 group M subtype B (isolate HXB2)) (UniProt P04585)
Experiment: concentration-response of HIV-1 RNase H blockers – biochemical, probe assessment, dose response (AID 652)
Settings: HIV-1 RT RNase H enzymatic assay; for inhibition: at 50 µM, stronger effect = higher value

SMILES | inhibition [%] | IC50
CCC1CC2(C)NC(=O)c3c(sc4c3CC(C)(C)OC4)N2C1=O (configuration not stated) | 82.8 | –
O=C(CSc1ncn[nH]1)c1ccccc1 | 84.1 | –
COc1cc(OC)c(C2CC(=O)N3CN(c4ccccc4C)CSC3=C2C#N)cc1OC (configuration not stated) | 97.9 | –
O=c1cc(CN2CCN(c3ccccc3)CC2)c2cc(O)c(-c3ccccc3)cc2o1 | 96.1 | –
COC(=O)N(c1ccccc1)P1(=S)OCCO1 | 81.9 | –
Fc1ccc(-c2nnc3sc(-c4ccc5c(c4)OCO5)nn23)cc1 | 72.3 | –
O=S(=O)(/N=S1/CC=CCN1S(=O)(=O)c1ccccc1)c1ccccc1 (configuration not stated) | 69 | 4.33 µM
CCOc1ccc(-n2c(=O)c3c4c(sc3n(CC(=O)NCc3ccco3)c2=O)CCC4)cc1 | 89.9 | –
O=C(NCc1ccco1)c1cccnc1-c1nc2ccccc2s1 | 93.7 | –
CC(C)CNC(=O)c1c(N)n(/N=C/c2ccccn2)c2nc3ccccc3nc12 | 95 | –
OCCN1CCN(C(=S)c2ccc(Cl)c(Cl)c2)CC1 | 76.6 | –
CCOC(=O)c1c(N)sc2c1CCC1C(=O)N(C3CCCCC3)C(=O)C21 (configuration not stated) | 96.1 | –
CCC(C)Sc1nc2c(c(=O)[nH]c(=O)n2C)n1CC(O)COc1cccc2ccccc12 (configuration not stated) | 95 | –
CCOC(=O)c1sc(NC(=O)CSc2nnc(Cc3ccccc3)o2)c(C#N)c1C | 98.3 | –
COC(=O)c1cccc(N2C(=O)C(Cl)=C(N3CCOCC3)C2=O)c1 | 29.2 | –
CCOc1cccc(C=Nc2cc(C)cc(C)c2O)c1O | 20.5 | > 50 µM (inactive)
O=C(CSc1nc2ccccc2c2nc3ccccc3n12)NCc1ccco1 | 67.7 | –
CCn1c2ccccc2c2nc3cc(S(=O)(=O)N4CCOCC4)ccc3nc21 | 88.9 | –
CCCc1cc(C(=O)Nc2sc(C)c(C)c2C(=O)OCC)no1 | 98 | –
CCCc1cc(C(=O)Nc2sc3c(c2C#N)CCC3)no1 | 92.6 | –
COc1cccc(-c2nnc(NC(=O)c3ccc(S(=O)(=O)N(CC(C)C)CC(C)C)cc3)o2)c1 | 84.4 | –
O=C(COc1ccc(Cl)cc1)Nc1nnc(-c2ccc3c(c2)CCCC3)o1 | 83.7 | 4.49 µM
CCOc1cc(C2c3c(oc4cc(C)c(Cl)cc4c3=O)C(=O)N2Cc2ccco2)ccc1O (configuration not stated) | 76.5 | –
Cc1sc2nc(SCC(=O)NCc3ccco3)n(CCc3ccccc3)c(=O)c2c1C | 82.4 | –
Cc1cccc(N2CCN(C(=O)Cn3sc4nc(C)cc(C)c4c3=O)CC2C)c1 (configuration not stated) | 86 | –
COC(=O)c1sc(N2C(=O)c3oc4ccccc4c(=O)c3C2c2cccs2)nc1C (configuration not stated) | 95.8 | –
c1ccc(Cc2nnc3sc(-c4ccncc4)nn23)cc1 | 80.4 | –

SMILES | inhibition [%] | IC50
CCOc1ccccc1N1CSC2=C(C#N)C(c3c(OC)ccc4ccccc34)CC(=O)N2C1 (configuration not stated) | 92 | –
COc1ccc(N2CSC3=C(C#N)C(c4cc(OC)c(OC)cc4OC)CC(=O)N3C2)c(OC)c1 (configuration not stated) | 76.1 | –
CC1=C(SCCC#N)S/C(=C2\SC(C)=C(SCCC#N)S2)S1 | 97.5 | –
C1=C(c2ccc(-c3ccccc3)cc2)Nc2ncnn2C1c1ccco1 (configuration not stated) | 48.6 | 14.5 µM
COC(=O)C1=C(C)N=c2s/c(=C3\C(=O)Nc4ccccc43)c(=O)n2C1c1ccccc1 (configuration not stated) | 85.1 | 5.94 µM
COc1ccc(N2CCN(Cc3cc(=O)oc4cc5c(cc34)CCCC5)CC2)cc1 | 88.8 | –
Cc1ccc2c(c1C)NC(C(=O)O)C1CC=CC21 (configuration not stated) | 96.5 | –
Cc1nc(C)c(C(=O)Nc2nc3c(C)cccc3s2)o1 | 100 | –
CN(C)c1ccc(N=Cc2c(O)n(CCC3=CCCCC3)c(=O)[nH]c2=O)cc1 | 80.1 | 3.8 µM
COc1ccc(CC(=O)Nc2ccc(-c3noc(-c4cccc(OC)c4)n3)cc2)cc1 | 85.5 | –
CC(C)Cc1cc(C(=O)Nc2sc3c(c2C#N)CCCC3)no1 | 94.6 | –
Cc1cc(C)c2oc(-c3ccc(Cl)c(NC(=O)c4ccc(C#N)cc4F)c3)nc2c1 | 91 | –
CCCCCC#CCC#CCC#CCC#CCCCC(=O)O | 98 | –
N#Cc1c(NC(=O)CN2CCN(S(=O)(=O)c3ccc4c(c3)OCCO4)CC2)sc2c1CCC2 | 81.9 | –
C=CCn1c(SCC(=O)c2ccc(O)c(O)c2)nnc1-c1ccccc1OC | 97.5 | –
O=C(CCN1C(=O)c2ccccc2C1=O)Nc1ccc(-c2nc3ccccc3o2)cc1 | 92.1 | –
Cc1ccc(-n2nc(C)c3c2NC(=O)CSC3c2ccc3c(c2)OCO3)cc1 (configuration not stated) | 89.4 | –
Cc1cc(C)cc(OCC(=O)Nc2nonc2NC(=O)COc2cc(C)cc(C)c2)c1 | 88 | –
CC(C)c1ccc(C2CC(=O)N3CN(C)CSC3=C2C#N)cc1 (configuration not stated) | 86.9 | –
CC(C)c1nc2sc3c(SCC(=O)NCc4ccco4)ncnc3c2c2c1CCC2 | 94.1 | –
CCCCCCNC(=O)c1c(N)n(/N=C/c2ccco2)c2nc3ccccc3nc12 | 98.3 | –
CN(C)c1cccc(C(=O)Nc2cccc(F)c2)c1 | 72 | –
COc1ccc(N2CCN(Cc3cc(=O)oc4cc(C)c(Cl)c(C)c34)CC2)cc1 | 96 | –
c1ccc(-n2ncc3c2ncn2nc(-c4ccco4)nc32)cc1 | 89.8 | –
CN1CCN(C2=C(Cl)C(=O)N(c3ccc(Cl)c(Cl)c3)C2=O)CC1 | 61.9 | 27.1 µM
Nc1c(C(=O)N2CCCCC2)sc(=S)n1-c1ccccc1 | 83.2 | –
CCOC(=O)c1sc(NC(=O)CSc2n[nH]c(-c3ccccc3)n2)c(C#N)c1C | 101 | –

SMILES | inhibition [%] | IC50
Nc1c(C(=O)NCc2cccnc2)sc(=S)n1-c1ccccc1 | 73.5 | 2.22 µM
Cc1cccc(N2CSC3=C(C#N)C(c4ccc(C)o4)CC(=O)N3C2)c1 (configuration not stated) | 100 | –
COc1cc(-c2nnc3sc(Cc4ccc(Cl)cc4)nn23)cc(OC)c1OC | 96.4 | –
COc1ccc(CCNC(=O)c2c(O)c3cccc4c3n(c2=O)CC4)cc1 | 67.1 | –
CCOC(=O)CSc1nc2cc(C(=O)NCc3ccco3)ccc2c(=O)n1C1CCCCC1 | 89 | –
Cc1cccc(Nc2n[nH]c(=S)s2)c1C | 96.9 | –
O=C(CSc1nnnn1-c1ccccc1)Nc1nsc(-c2ccc(Cl)cc2)n1 | 48.8 | –
CCOC(=O)CSc1nc2cc(C(=O)NCc3ccco3)ccc2c(=O)n1-c1ccc(F)cc1 | 91.8 | –
CCn1cc(C(=O)NCc2ccco2)c(=O)c2cc(S(=O)(=O)N3CCc4ccccc4C3)ccc21 | 76.8 | –
Cc1ccccc1NC(=O)CSc1nc2c(c(-c3ccco3)c1C#N)CCCC2 | 97.2 | –
c1c2c(cc3sc(N4CCOCC4)nc13)OCO2 | 78.1 | –
O=C(O)c1cc(S(=O)(=O)Nc2ccc3oc(=O)sc3c2)ccc1O | 88.2 | –
CCCc1nc2ccccc2c(=O)n1/N=C/c1ccc(O)c(O)c1 | 97.3 | –
COc1ccc(N2CSC3=C(C#N)C(c4cc(OC)ccc4OC)CC(=O)N3C2)c(OC)c1 (configuration not stated) | 93.9 | –
Cc1ccc2c(SCC(=O)NCc3ccco3)nc(-c3ccc(F)cc3)nc2c1 | 79.6 | –
COc1ccccc1-c1nnc2n1N=C(c1ccc(O)c(O)c1)CS2 | 97 | –
O=C(Nc1ccc2nc(-c3ccco3)c(-c3ccco3)nc2c1)N1CCCCCC1 | 97 | –
c1ccc2c(c1)ncn2Cc1nnc2sc(-c3ccc4c(c3)OCO4)nn12 | 93 | –
COc1ccc(OC)c(S(=O)(=O)Nc2ccc(O)c(Sc3ncn[nH]3)c2)c1 | 89.7 | –
O=C(CCCn1c(SCC(=O)c2ccc(O)c(O)c2)nc2ccccc2c1=O)NCC1CCCO1 (configuration not stated) | 99.4 | –
CCCCCn1c(SCCCC)nc2c1c(=O)[nH]c(=O)n2C | 91.1 | –
S=c1nc(C2CC2)[nH]c2ccccc12 | 97.1 | –
O=c1/c(=C/c2ccccn2)sc2nc3ccccc3n12 | 89.2 | 14.6 µM
Cc1oc(-c2ccc(Cl)cc2)cc1-c1nn2c(-c3ccoc3C)nnc2s1 | 78.4 | –
Cc1ccc(NC(=O)Cn2nnc(C(=O)Nc3ccc(C)c(C)c3)c2N)cc1 | 76.8 | –
Cc1ccnc(-n2sc3ccccc3c2=O)n1 | 96.7 | –
COc1ccc2[nH]c(=O)c(CN(C3CCCCC3)C(c3nnnn3Cc3ccco3)C(C)C)cc2c1 (configuration not stated) | 88.5 | –

SMILES | inhibition [%] | IC50
CCOC(=O)c1c(C)[nH]c(C(=O)CSc2nc3ccccc3o2)c1C | 93.7 | –
O=C(Nc1nc(-c2ccncc2)cs1)C1COc2ccccc2O1 (configuration not stated) | 92.5 | > 50 µM (inactive)
Nc1nnc(CSCc2ccc(F)cc2)s1 | 51.7 | –
C=CCSc1nc2c(cnn2-c2ccc(C)c(C)c2)c(=O)[nH]1 | 88.6 | 13.8 µM
COc1ccc(C2C(C(C)=O)=C(C)N=c3s/c(=C/c4ccc5c(c4)OCO5)c(=O)n32)cc1 (configuration not stated) | 82.2 | –
COc1ccc(C(=S)N(C)C)cc1OC | 78.6 | 3.61 µM
CC(C)c1nnc(NC(=O)c2c(O)c3cccc4c3n(c2=O)CCC4)s1 | 64.9 | –
CCOC(=O)Cc1csc(-n2sc3ccccc3c2=O)n1 | 96.4 | –
COC(=O)c1ccc2c(=O)n(Cc3ccco3)c(SCC(=O)Nc3ccc(C)c(Cl)c3)nc2c1 | 92.1 | –
Cc1cccc(OCC(=O)Nc2cccc(-c3nnc(-c4ccccc4)o3)c2)c1C | 88.1 | –
COc1ccc(-n2c(SCC(=O)N3CCCC3)nc3c([nH]c4ccccc43)c2=O)cc1 | 66.7 | –
CCn1c(SCC(=O)c2ccc(O)c(O)c2)nnc1-c1ccccc1OC | 98.4 | –
O=c1/c(=C\c2cccn2-c2ccccc2)sc2nc3ccccc3n12 | 92 | –
O=C(COc1ccc(Br)cc1)Nc1ccc(-c2nnc(-c3ccco3)o2)cc1 | 95.1 | –
c1ccc2c(c1)nnn2Cc1nnc2sc(-c3ccncc3)nn12 | 90.6 | –
Cc1cc(C)c(NC(=O)Cn2c(=O)n(Cc3ccco3)c(=O)c3ccccc32)c(C)c1 | 76.8 | –
Cc1sc2nc(C(C)Nc3ccccc3N3CCOCC3)[nH]c(=O)c2c1C (configuration not stated) | 66.5 | –
O=C(NCc1ccco1)c1cc2cc3ccc(Cl)cc3nc2o1 | 91.6 | –
C=CCc1c(C)[nH]c(=S)c(C#N)c1C | 67.2 | –
N#Cc1c(SCC(=O)Nc2nccs2)nc2c(c1-c1ccco1)CCCC2 | 88.9 | –
CC(C)(C)C1=Nn2c(nnc2-c2ccccn2)SC1 | 80.5 | –
c1ccc(N2CCN(c3nc4cc5c(cc4s3)OCO5)CC2)cc1 | 97.6 | –
c1ccc2c(c1)nnn2Cc1nnc2sc(-c3ccc4c(c3)OCCO4)nn12 | 85.3 | –
COc1cc(-c2nnc3sc(-c4cccnc4)nn23)cc(OC)c1OC | 72.2 | –
